According to PMC9516332 (Frontiers in Oncology, 2022):
Read-outs that look alike come from different tables or passages of the source.

Test system: 134 cancer cell lines
Experiment: Cell viability assay (ATPlite, 72 hours), IC50 on cancer cell line panel

`CC(=O)Nc1cccc(-n2c(=O)n(C3CC3)c(=O)c3c(Nc4ccc(I)cc4F)n(C)c(=O)c(C)c32)c1` [trametinib] gave an IC50 (HEC-6, read-out: IC50 in cell proliferation assay, HEC-6 cell line (EGFR p.A289V)) of over 31600 nM, an IC50 (Homo sapiens, 769-P, read-out: IC50 in cell proliferation assay, cell line 769-P) of 95 nM and an IC50 (Homo sapiens, 786-0, read-out: IC50 in cell proliferation assay, cell line 786-O) of 42 nM. For the same compound, the IC50 (Homo sapiens, A 172, read-out: IC50 in cell proliferation assay, cell line A-172) was 235 nM, the IC50 (Homo sapiens, A204, read-out: IC50 in cell proliferation assay, cell line A-204) was 1230 nM and the IC50 (Homo sapiens, A498, read-out: IC50 in cell proliferation assay, cell line A-498) was 13800 nM. It also gave an IC50 (Homo sapiens, A549, read-out: IC50 in cell proliferation assay, cell line A-549) of 8 nM, an IC50 (Homo sapiens, A704, read-out: IC50 in cell proliferation assay, cell line A-704) of over 28200 nM and an IC50 (Homo sapiens, A-375, read-out: IC50 in cell proliferation assay, cell line A-375 (BRAF p.V600E)) of 5 nM. For the same compound, the IC50 (Homo sapiens, A-427, read-out: IC50 in cell proliferation assay, cell line A-427) was 2.13 nM, the IC50 (Homo sapiens, ACHN, read-out: IC50 in cell proliferation assay, cell line ACHN) was 6 nM and the IC50 (Homo sapiens, AN3-CA, read-out: IC50 in cell proliferation assay, cell line AN3-CA (FGFR2 p.N549K)) was 50 nM. The IC50 (Homo sapiens, ASPC1, read-out: IC50 in cell proliferation assay, cell line AsPC-1) was 14 nM, the IC50 (Homo sapiens, AU565, read-out: IC50 in cell proliferation assay, cell line AU565 (ERBB2 amplification)) was over 28200 nM and the IC50 (Homo sapiens, BT-20, read-out: IC50 in cell proliferation assay, cell line BT-20) was over 28200 nM. For the same compound, the IC50 (Homo sapiens, BT-474, read-out: IC50 in cell proliferation assay, cell line BT-474 (ERBB2 amplification)) was over 31600 nM, the IC50 (Homo sapiens, BT-549, read-out: IC50 in cell proliferation assay, cell line BT-549) was 314 nM and the IC50 (Homo sapiens, BXPC-3, read-out: IC50 in cell proliferation assay, cell line BxPC-3) was 38 nM. It also gave an IC50 (Homo sapiens, C-33-A, read-out: IC50 in cell proliferation assay, cell line C-33 A) of 4.42 nM, an IC50 (Homo sapiens, CAL-27, read-out: IC50 in cell proliferation assay, cell line CAL-27) of 11 nM and an IC50 (Homo sapiens, CCF-STTG1, read-out: IC50 in cell proliferation assay, cell line CCF-STTG1) of over 28200 nM. For the same compound, the IC50 (Homo sapiens, CCRF-CEM, read-out: IC50 in cell proliferation assay, cell line CCRF-CEM) was over 28200 nM, the IC50 (Homo sapiens, COLO 205, read-out: IC50 in cell proliferation assay, cell line COLO 205 (BRAF p.V600E)) was 4 nM and the IC50 (Homo sapiens, COLO-829, read-out: IC50 in cell proliferation assay, cell line COLO 829 (BRAF p.V600E)) was 16 nM. It also gave an IC50 (Homo sapiens, DLD-1, read-out: IC50 in cell proliferation assay, cell line DLD-1) of 507 nM, an IC50 (Homo sapiens, DU-4475, read-out: IC50 in cell proliferation assay, cell line DU4475 (BRAF p.V600E)) of 10 nM and an IC50 (Homo sapiens, Daoy, read-out: IC50 in cell proliferation assay, cell line Daoy) of 427 nM. For the same compound, the IC50 (Homo sapiens, DoTc2-4510, read-out: IC50 in cell proliferation assay, cell line DoTc2 4510) was 8 nM, the IC50 (Homo sapiens, EOL1, read-out: IC50 in cell proliferation assay, cell line EoL-1 (FIP1L1-PDGFRA)) was 8 nM and the IC50 (Homo sapiens, FaDu, read-out: IC50 in cell proliferation assay, cell line FaDu) was 19 nM. It also gave an IC50 (Homo sapiens, G-361, read-out: IC50 in cell proliferation assay, cell line G-361 (BRAF p.V600E)) of 5.46 nM, an IC50 (Homo sapiens, HCC827, read-out: IC50 in cell proliferation assay, cell line HCC827 (EGFR exon19del)) of 151 nM and an IC50 (Homo sapiens, HCC4006, read-out: IC50 in cell proliferation assay, cell line HCC4006 (EGFR exon19del)) of 808 nM. For the same compound, the IC50 (Homo sapiens, HCT-15, read-out: IC50 in cell proliferation assay, cell line HCT 15) was 1740 nM, the IC50 (Homo sapiens, HCT-116, read-out: IC50 in cell proliferation assay, cell line HCT 116) was 29 nM and the IC50 (Homo sapiens, HEC-1, read-out: IC50 in cell proliferation assay, HEC-1 cell line) was 330 nM. The IC50 (Homo sapiens, HEC-1B, read-out: IC50 in cell proliferation assay, HEC-1-B cell line (EGFR p.A864V)) was 6.36 nM, the IC50 (Homo sapiens, HL-60, read-out: IC50 in cell proliferation assay, HL-60 cell line) was 1 nM and the IC50 (Homo sapiens, HT, read-out: IC50 in cell proliferation assay, HT cell line) was over 28200 nM. It also gave an IC50 (Homo sapiens, HT-1080, read-out: IC50 in cell proliferation assay, HT-1080 cell line) of 28 nM, an IC50 (Homo sapiens, Hs746T, read-out: IC50 in cell proliferation assay, Hs 746.T cell line (MET exon14skip + amplification)) of 82 nM and an IC50 (Homo sapiens, Hs-578T, read-out: IC50 in cell proliferation assay, Hs 578T cell line) of 211 nM. The IC50 (Homo sapiens, HuTu80, read-out: IC50 in cell proliferation assay, HuTu 80 cell line) was 129 nM, the IC50 (Homo sapiens, J82, read-out: IC50 in cell proliferation assay, J82 cell line) was over 28200 nM and the IC50 (Homo sapiens, Jurkat E6.1, read-out: IC50 in cell proliferation assay, Jurkat E6.1 cell line) was over 28200 nM. It also gave an IC50 (Homo sapiens, K562, read-out: IC50 in cell proliferation assay, K-562 cell line) of 22 nM, an IC50 (Homo sapiens, KATO III, read-out: IC50 in cell proliferation assay, KATO III cell line (FGFR2 amplification)) of 142 nM and an IC50 (Homo sapiens, KG-1, read-out: IC50 in cell proliferation assay, KG-1 cell line (FGFR1OP2-FGFR1)) of 9 nM. The IC50 (Homo sapiens, KLE, read-out: IC50 in cell proliferation assay, KLE cell line) was over 28200 nM, the IC50 (Homo sapiens, KMS-11, read-out: IC50 in cell proliferation assay, KMS-11 cell line (FGFR3 p.Y373C)) was over 31600 nM and the IC50 (Homo sapiens, KU812, read-out: IC50 in cell proliferation assay, Ku812 cell line) was 13 nM. The IC50 (Homo sapiens, Kasumi 1, read-out: IC50 in cell proliferation assay, Kasumi-1 cell line (KIT p.N822K)) was 29 nM, the IC50 (Homo sapiens, LC-2-ad, read-out: IC50 in cell proliferation assay, LC-2/ad cell line (CCDC6-RET)) was 167 nM and the IC50 (Homo sapiens, LNCaP-Clone-FGC, read-out: IC50 in cell proliferation assay, LNCaP clone FGC cell line) was over 28200 nM. It also gave an IC50 (Homo sapiens, LS174T, read-out: IC50 in cell proliferation assay, LS174T cell line) of 30 nM, an IC50 (Homo sapiens, LS-411N, read-out: IC50 in cell proliferation assay, LS411N cell line (BRAF p.V600E)) of 9 nM and an IC50 (Homo sapiens, LoVo, read-out: IC50 in cell proliferation assay, LoVo cell line) of 32 nM. It also gave an IC50 (Homo sapiens, MCF7, read-out: IC50 in cell proliferation assay, MCF-7 cell line) of over 28200 nM, an IC50 (Homo sapiens, MDA-MB-231, read-out: IC50 in cell proliferation assay, MDA-MB-231 cell line) of 44 nM and an IC50 (Homo sapiens, MDA-MB-453, read-out: IC50 in cell proliferation assay, MDA-MB-453 cell line) of 270 nM. For the same compound, the IC50 (Homo sapiens, MDA-MB-468, read-out: IC50 in cell proliferation assay, MDA-MB-468 cell line) was 151 nM, the IC50 (Homo sapiens, MG-63, read-out: IC50 in cell proliferation assay, MG-63 cell line) was 257 nM and the IC50 (Homo sapiens, MIA PaCa-2, read-out: IC50 in cell proliferation assay, MIA PaCa-2 cell line) was 33 nM. The IC50 (Homo sapiens, MKN-45, read-out: IC50 in cell proliferation assay, MKN45 cell line (MET amplification)) was 83 nM, the IC50 (Homo sapiens, MOLM-13, read-out: IC50 in cell proliferation assay, MOLM-13 cell line (FLT3 ITD)) was 34 nM and the IC50 (Homo sapiens, MOLT-4, read-out: IC50 in cell proliferation assay, MOLT-4 cell line) was 27600 nM. For the same compound, the IC50 (Homo sapiens, MV4-11, read-out: IC50 in cell proliferation assay, MV4-11 cell line (FLT3 ITD)) was 22 nM.
